Blank lines part the entries; values can stand above or below the molecule they belong to. Residues, ends and D or L forms follow the SMILES beside them. No end group written: not given here. *: point of attachment. Stearoyl = CCCCCCCCCCCCCCCCCC(=O)*
What was measured:
[1] = tested on: ovariectomized (OVX) rats; experiment: Bone biomechanical properties in ovariectomized rat (lumbar vertebrae compression, femoral neck cantilever bending); assay type: in vivo, Sprague-Dawley rats; conditions: 3.2 mg/kg BID s.c., 6 weeks, vs OVX vehicle
Experimental: (§1) Effects on bone of three doses of HBD1 (3-11) with stearic acid at the N-terminus (C18:0) analog were tested in vivo in ovariectomized (OVX) rats, a recognized model for human osteoporosis, in particular postmenopausal osteoporosis. Each group included ten female Sprague-Dawley rats that were four months of age at the beginning of the in-life phase of the study. Treatment started six weeks after OVX surgery and lasted for six additional weeks. Groups were randomized before surgery according to body weight and tibial metaphysis Bone Mineral Density (BMD) as measured by peripheral quantitative computed tomography (pQCT) from Norland Stratec XCT Research SA equipment (Norland Stratec Medizintechnik, Birkenfeld, Germany).
(§2) The peptide was reconstituted in saline solution (0.9% NaCl) and administered subcutaneously twice a day at the doses of 0.8 mg/kg (low), 1.6 mg/kg (med) or 3.2 mg/kg (high) in a volume of 1 mL/kg. The control group was administered twice a day with saline by s.c. administration. Rats were weighed once a week and the volume of dosing solution administered was adjusted accordingly.
Bone biomechanical properties were determined by compression test using Instron 3343 biomechanical testing system (Instron, Norwood, Mass., USA). […]

[2] = tested on: ovariectomized (OVX) rats; experiment: Bone formation in ovariectomized rat, μCT of proximal tibia; assay type: in vivo, Sprague-Dawley rats; conditions: 6 weeks
Experimental: as §1, §2
High-resolution micro-computed tomography (μCT) measurements using Sky Scan 1072 or 1172 High Resolution Scanner (Bruker microCT, Kontich, Belgium) were performed ex vivo in right proximal tibia at the end of the treatment period for measuring bone volume, bone cross-sectional dimensions and bone microarchitecture. FIGS. 5A, 5B and 5C show the percent increase from OVX animals HBD1 (3-11) with stearic acid at the N-terminus (C18:0) groups for following selected parameters: Bone Volume Fraction (BV/TV; %), Trabecular number (Tb.N; mm^−1) and Connectivity Density (Conn.D; mm^−3).

[3] = Pharmacokinetic in Göttingen minipigs after intravenous and subcutaneous injection; assay type: in vivo; conditions: 0.5 μmol/kg
Experimental: The peptide was reconstituted in saline (0.9% NaCl). Three Göttingen minipigs (approximately 8-10 months of age) were used per group. Intravenous doses were administered into an ear vein at the dose of 0.5 μmol net peptide/kg. Subcutaneous doses were administered into the right flank of each animal, also at the dose of 0.5 μmol net peptide/kg. Following dosing, serial whole blood samples (ca. 0.25 mL) were collected from a jugular vein into K2EDTA treated containers. Following each blood sample collection, samples were placed into a cooling block at 4° C. Samples were collected prior to dosing then at 5 and 30 minutes then 1, 2, 4, 8, 25, 48, 72 and 96 hours post dose for intravenous injection and at 15 and 30 minutes then 1, 2, 4, 8, 25, 48, 72 and 96 hours post dose for subcutaneous injection.
Blood samples were centrifuged at 10000×g for 2 minutes at 4° C. and resultant plasma aspirated off into clean fully, labelled tubes. Plasma samples were snap frozen following aspiration then stored at −80° C. Peptide extraction and analysis were performed as described in Example 9. The limit of quantification of this method is 0.0015 nmol/mL. All values below this limit of quantification are considered as zero.

[4] = Stability of HBD1 fragments in human plasma; assay type: in vitro ADME; conditions: 24 and 48 hours incubation at 37° C.
Experimental: The peptides were spiked at 1 μg/mL (peptide backbone) into pre-warmed human K2EDTA plasma (at 37° C.) and incubated for up to 48 hours. Aliquots of plasma were extracted at specific time points (0, 24 and 48 hours post spike). Extraction was performed with acetonitrile:water (75:25, v/v) for HBD1 (1-13), HBD1 (1-13) with palmitic acid at the N-terminus (C16:0), HBD1 (3-11) with palmitic acid at the N-terminus (C16:0)) and HBD1 (3-11) with stearic acid at the N-terminus (C18:0) or with acetonitrile:water:formic acid (75:25:0.1, v/v/v) for HBD1 (3-11) and cyclic HBD1 (3-11). The peptides were analyzed using developed LC (C18 reverse phase column)—positive ion electrospray MS/MS methods specific to each peptide. The peak area at each time point was expressed as a percentage of the value obtained for the t=0 minutes time point.

[5] = Pharmacokinetic of HBD1 fragments in male Sprague Dawley rats after intravenous and subcutaneous injection; assay type: in vivo; conditions: 1 μmol net peptide/kg; for quantifiable exposure after administration by either dose route: iv and sc
Experimental: The peptides were reconstituted in saline (0.9% NaCl). Three male Sprague Dawley rats were used per group. Intravenous doses were administered into a lateral tail vein at the dose of 1 μmol net peptide/kg. Subcutaneous doses were administered into the right flank of each animal, also at the dose of 1 μmol net peptide/kg. Following dosing, serial whole blood samples (ca. 0.25 mL) were collected from a lateral tail vein into K2EDTA treated containers. Following each blood sample collection, samples were placed into a cooling block at 4° C. Samples were collected prior to dosing then at 2, 5, 15 and 30 minutes then 1, 2, 4, 6 and 8 and 24 hours post dose for intravenous injection and at 15 and 30 minutes then 1, 2, 4, 6, 8 and 24 hours post dose for subcutaneous injection.
Blood samples were centrifuged at 10000×g for 2 minutes at 4° C. and resultant plasma aspirated off into clean fully, labelled tubes. Plasma samples were snap frozen following aspiration then stored at −80° C. Peptides were extracted and analyzed as described in Example 9. The limits of quantification of these methods were 0.001 nmol/mL for cyclic HBD1 (3-11) and HBD1 (3-11) and 0.003 nmol/mL for HBD1 (1-13). All values below these limits of quantification were considered as zero.

[6] = OVX rats, s.c. twice a day 0.8, 1.6 or 3.2 mg/kg, vs OVX vehicle, dose-dependent

duration of exposure after subcutaneous administration [3]: up to 25 hours
Molecule: CCCCCCCCCCCCCCCCCC(=O)N[C@@H](Cc1c[nH]cn1)C(=O)N[C@@H](CC(C)C)C(=O)NCC(=O)N[C@@H](CC(C)C)C(=O)N[C@@H](CCC(=O)O)C(=O)N[C@@H](CCC(=O)O)C(=O)N1CCC[C@H]1C(=O)N[C@@H](CCCCN)C(=O)N[C@@H](CCCCN)C(=O)O [SEQ ID NO: 73, C18:0-HLGLEEPKK] (Stearoyl-HLGLEEPKK-OH; C-terminus assumed)
bone strength (biomechanical properties of lumbar vertebrae and femoral neck) [1]: increased bone strength
effect on bone in ovariectomized rat ([2]; OVX Sprague-Dawley rats, s.c. twice a day, 0.8, 1.6 or 3.2 mg/kg): has anabolic effect on bone
connectivity density (Conn.D) at tibial metaphysis [2, 6]: increased
percent bone volume fraction (BV/TV) at tibial metaphysis [2, 6]: increased
trabecular number (Tb.N) at tibial metaphysis [2, 6]: increased

stability in human plasma (in words) [4]: markedly degraded in human plasma
quantifiable exposure after administration by either dose route [5]: no quantifiable exposure
Molecule: KHHLGLEEPKKLR [SEQ ID NO: 1, KHHLGLEEPKKLR, reference compound]

stability in human plasma (in words) [4]: very stable in human plasma
quantifiable exposure after administration by either dose route [5]: no quantifiable exposure
Molecule: HLGLEEPKK [SEQ ID NO: 10, HLGLEEPKK]

Tlast (last time point with detectable peptide) ([5]; iv, listed as Cyclic HBD1 (3-11)): 8 h
Tlast (last time point with detectable peptide) ([5]; sc, listed as Cyclic HBD1 (3-11)): 4 h
Tlast (last time point with detectable peptide) ([5]; sc, listed as cyclic HBD1 (3-11)): ≤ 4 h
Molecule: CC(C)C[C@@H]1NC(=O)CNC(=O)[C@H](CC(C)C)NC(=O)[C@H](Cc2c[nH]cn2)NC(=O)[C@H](CCCCN)NC(=O)[C@H](CCCCN)NC(=O)[C@@H]2CCCN2C(=O)[C@H](CCC(=O)O)NC(=O)[C@H](CCC(=O)O)NC1=O [SEQ ID NO: 77, Cyclic (HLGLEEPKK)] (cyclo(EEPKKHLGL))
